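Exposure lasted 48 hours, with cells grown in 96-well plates and compounds tested at five concentrations. GI50: concentration for 50% inhibition of growth.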 Active and inactive are the calls of the source. Cut-off read from the data, not from the text of the source: active = GI50 up to about 1.1 µM and inactive = higher.
Key:
Test in all cases: DTP human tumour cell line panel, 48 h
SK-OV-3 = test system: SK-OV-3
K562 = test system: K562
SR = test system: SR
CCRF-CEM = test system: CCRF-CEM
HT-29 = test system: HT-29
OVCAR-8 = test system: OVCAR-8
UACC-257 = test system: UACC-257
786-0 = test system: 786-0
HL-60 = test system: HL-60
MOLT-4 = test system: MOLT-4
T47D = test system: T47D
LOX IMVI = test system: LOX IMVI
OVCAR-4 = test system: OVCAR-4
SW-620 = test system: SW-620
ACHN = test system: ACHN
SN12C = test system: SN12C
TK-10 = test system: TK-10

Measured: GI50

CCN(CC)c1ccc2cc(C(N)=O)c(=N)oc2c1
inactive: SK-OV-3 36.6 µM | K562 > 100 µM | SR 14.6 µM | CCRF-CEM 31.2 µM | HT-29 51.5 µM | OVCAR-8 50 µM | UACC-257 > 100 µM | 786-0 30.1 µM | HL-60 36.5 µM | MOLT-4 69.2 µM | T47D 23.7 µM | LOX IMVI 29.5 µM | OVCAR-4 23.6 µM | SW-620 47.4 µM | ACHN 32.7 µM | SN12C 31.3 µM

CCOC(=O)C1(C(C)=O)OC(=O)c2cnccc21 (stereo not drawn)
inactive: SK-OV-3 > 100 µM | K562 > 100 µM | SR > 100 µM | CCRF-CEM > 100 µM | HT-29 > 100 µM | OVCAR-8 > 100 µM | UACC-257 > 100 µM | 786-0 > 100 µM | HL-60 > 100 µM | MOLT-4 > 100 µM | T47D > 100 µM | LOX IMVI > 100 µM | SW-620 > 100 µM | ACHN > 100 µM | SN12C > 100 µM

CN(C)/N=C(/CC(O)(C(F)(F)F)C(F)(F)F)c1ccc([N+](=O)[O-])cc1
inactive: SK-OV-3 > 100 µM | K562 > 100 µM | SR > 100 µM | CCRF-CEM > 100 µM | HT-29 > 100 µM | OVCAR-8 > 100 µM | UACC-257 > 100 µM | 786-0 > 100 µM | HL-60 > 100 µM | MOLT-4 > 100 µM | T47D > 100 µM | LOX IMVI > 100 µM | OVCAR-4 > 100 µM | SW-620 > 100 µM | ACHN > 100 µM | SN12C > 100 µM

O=C(c1ccco1)N(C(=O)N1CCN(c2ccccc2)CC1)S(=O)(=O)c1ccccc1
inactive: SK-OV-3 > 100 µM | K562 33 µM | SR 23.8 µM | CCRF-CEM 27 µM | HT-29 35.8 µM | OVCAR-8 32.6 µM | UACC-257 32 µM | 786-0 32.1 µM | HL-60 21.2 µM | MOLT-4 21.9 µM | T47D 24.2 µM | OVCAR-4 27.5 µM | TK-10 33.3 µM | SW-620 38.5 µM | ACHN 24.7 µM | SN12C 23.9 µM

O=C(O)c1nn[nH]c1S
inactive: SK-OV-3 > 100 µM | K562 > 100 µM | SR > 100 µM | CCRF-CEM > 100 µM | HT-29 > 100 µM | OVCAR-8 > 100 µM | UACC-257 > 100 µM | 786-0 > 100 µM | HL-60 > 100 µM | MOLT-4 > 100 µM | T47D > 100 µM | LOX IMVI > 100 µM | OVCAR-4 > 100 µM | SW-620 > 100 µM | ACHN > 100 µM | SN12C > 100 µM

CC1CC(=O)Nc2nc3ccccc3n21 (stereo not drawn)
inactive: SK-OV-3 > 100 µM | K562 > 100 µM | SR > 100 µM | CCRF-CEM > 100 µM | HT-29 > 100 µM | OVCAR-8 > 100 µM | UACC-257 > 100 µM | 786-0 > 100 µM | HL-60 > 100 µM | MOLT-4 > 100 µM | T47D > 100 µM | LOX IMVI > 100 µM | OVCAR-4 > 100 µM | TK-10 > 100 µM | SW-620 > 100 µM | ACHN > 100 µM

COc1ccc2cc1Oc1ccc(cc1)C(Sc1ccccc1)CCOC(=O)CC2 (stereo not drawn)
inactive: SK-OV-3 > 100 µM | K562 82.8 µM | SR > 100 µM | CCRF-CEM > 100 µM | HT-29 > 100 µM | OVCAR-8 > 100 µM | UACC-257 > 100 µM | 786-0 > 100 µM | HL-60 28.1 µM | MOLT-4 > 100 µM | T47D 11.5 µM | LOX IMVI > 100 µM | OVCAR-4 > 100 µM | TK-10 > 100 µM | SW-620 > 100 µM | ACHN > 100 µM | SN12C > 100 µM

C=CC(OC(=O)C(C)C)c1ccc(OC(=O)C(C)C)cc1 (stereo not drawn)
inactive: SK-OV-3 19.8 µM | K562 7.96 µM | SR 6.92 µM | CCRF-CEM 3.24 µM | HT-29 11.1 µM | OVCAR-8 17.5 µM | UACC-257 14.7 µM | 786-0 4.69 µM | HL-60 2.92 µM | MOLT-4 6.93 µM | T47D 21.6 µM | LOX IMVI 4.47 µM | OVCAR-4 14.8 µM | SW-620 4.06 µM | ACHN 14.6 µM | SN12C 14 µM
